Experiment: molar heat capacity at constant pressure; xn = mol fraction of the nth substance listed
Conditions: 101.3 kPa, Liquid, Small sample (50 mg) DSC

CCC(C)(C)O [2-methylbutan-2-ol] + CCCCCCC
Conditions | molar heat capacity at constant pressure [J/K/mol]
327.15 K, x1 = 0.1547 | 258.26
327.15 K, x1 = 0.2993 | 269.94
327.15 K, x1 = 0.4051 | 274.66
327.15 K, x1 = 0.4986 | 277.47
327.15 K, x1 = 0.5981 | 279.08
327.15 K, x1 = 0.7015 | 280.02
327.15 K, x1 = 0.8023 | 279.59
327.15 K, x1 = 0.9139 | 278.56
327.15 K, x1 = 0.9609 | 277.44
328.15 K, x1 = 0.0061 | 236.22
328.15 K, x1 = 0.0249 | 237.72
328.15 K, x1 = 0.0494 | 242.15
328.15 K, x1 = 0.1 | 251.24
328.15 K, x1 = 0.1547 | 258.56
328.15 K, x1 = 0.1999 | 263.19
328.15 K, x1 = 0.2993 | 270.46
328.15 K, x1 = 0.4051 | 275.23
328.15 K, x1 = 0.4986 | 278.16
328.15 K, x1 = 0.5981 | 279.9
328.15 K, x1 = 0.7015 | 280.91
328.15 K, x1 = 0.8023 | 280.5
328.15 K, x1 = 0.9139 | 279.46
328.15 K, x1 = 0.9609 | 278.39
329.14 K, x1 = 0.0061 | 236.63
329.14 K, x1 = 0.0249 | 238.11
329.14 K, x1 = 0.0494 | 242.34
329.14 K, x1 = 0.1 | 251.42
329.14 K, x1 = 0.1547 | 258.8
329.14 K, x1 = 0.1999 | 263.54
329.14 K, x1 = 0.2993 | 270.92
329.14 K, x1 = 0.4051 | 275.78
329.14 K, x1 = 0.4986 | 278.83
329.14 K, x1 = 0.5981 | 280.59
329.14 K, x1 = 0.7015 | 281.67
329.14 K, x1 = 0.8023 | 281.37
329.14 K, x1 = 0.9139 | 280.33
329.14 K, x1 = 0.9609 | 279.29
330.14 K, x1 = 0.0061 | 237.14
330.14 K, x1 = 0.1 | 251.61
330.14 K, x1 = 0.1547 | 259.04
330.14 K, x1 = 0.2993 | 271.42
330.14 K, x1 = 0.4986 | 279.45
330.14 K, x1 = 0.5981 | 281.32
330.14 K, x1 = 0.7015 | 282.46
330.14 K, x1 = 0.8023 | 282.14
330.14 K, x1 = 0.9139 | 281.17
330.14 K, x1 = 0.9609 | 280.09
330.15 K, x1 = 0.0249 | 238.44
330.15 K, x1 = 0.0494 | 242.58
330.15 K, x1 = 0.1999 | 263.87
330.15 K, x1 = 0.4051 | 276.4
331.15 K, x1 = 0.0061 | 237.49
331.15 K, x1 = 0.0249 | 238.7
331.15 K, x1 = 0.0494 | 242.66
331.15 K, x1 = 0.1 | 251.73
331.15 K, x1 = 0.1547 | 259.17
331.15 K, x1 = 0.1999 | 264.08
331.15 K, x1 = 0.2993 | 271.78
331.15 K, x1 = 0.4051 | 276.82
331.15 K, x1 = 0.4986 | 280.03
331.15 K, x1 = 0.5981 | 282
331.15 K, x1 = 0.7015 | 283.13
331.15 K, x1 = 0.8023 | 282.9
331.15 K, x1 = 0.9139 | 281.93
331.15 K, x1 = 0.9609 | 280.9
332.11 K, x1 = 0.4051 | 277.29
332.14 K, x1 = 0.0061 | 237.91
332.14 K, x1 = 0.0249 | 239.06
332.14 K, x1 = 0.0494 | 242.88
332.14 K, x1 = 0.1 | 251.74
332.14 K, x1 = 0.1547 | 259.34
332.14 K, x1 = 0.1999 | 264.36
332.14 K, x1 = 0.2993 | 272.13
332.14 K, x1 = 0.4986 | 280.59
332.14 K, x1 = 0.5981 | 282.58
332.14 K, x1 = 0.7015 | 283.9
332.14 K, x1 = 0.8023 | 283.62
332.14 K, x1 = 0.9139 | 282.68
332.14 K, x1 = 0.9609 | 281.66
333.14 K, x1 = 0.0061 | 238.38
333.14 K, x1 = 0.0249 | 239.45
333.14 K, x1 = 0.0494 | 243.08
333.14 K, x1 = 0.1 | 251.95
333.14 K, x1 = 0.1547 | 259.59
333.14 K, x1 = 0.1999 | 264.68
333.14 K, x1 = 0.2993 | 272.54
333.14 K, x1 = 0.4051 | 277.88
333.14 K, x1 = 0.4986 | 281.17
333.14 K, x1 = 0.7015 | 284.62
333.14 K, x1 = 0.8023 | 284.48
333.14 K, x1 = 0.9139 | 283.56
333.14 K, x1 = 0.9609 | 282.52
333.15 K, x1 = 0.5981 | 283.29
334.04 K, x1 = 0.0249 | 239.87
334.15 K, x1 = 0.0061 | 238.94
334.15 K, x1 = 0.0494 | 243.42
334.15 K, x1 = 0.1 | 252.08
334.15 K, x1 = 0.1547 | 259.81
334.15 K, x1 = 0.1999 | 264.99
334.15 K, x1 = 0.2993 | 272.99
334.15 K, x1 = 0.4051 | 278.43
334.15 K, x1 = 0.4986 | 281.83
334.15 K, x1 = 0.5981 | 284.02
334.15 K, x1 = 0.7015 | 285.36
334.15 K, x1 = 0.8023 | 285.27
334.15 K, x1 = 0.9139 | 284.32
334.15 K, x1 = 0.9609 | 283.36
334.33 K, x1 = 0.0249 | 239.98
335.14 K, x1 = 0.0061 | 239.28
335.14 K, x1 = 0.0249 | 240.2
335.14 K, x1 = 0.0494 | 243.54
335.14 K, x1 = 0.1 | 252.23
335.14 K, x1 = 0.1547 | 259.88
335.14 K, x1 = 0.1999 | 265.1
335.14 K, x1 = 0.2993 | 273.19
335.14 K, x1 = 0.4051 | 278.76
335.14 K, x1 = 0.4986 | 282.26
335.14 K, x1 = 0.5981 | 284.55
335.14 K, x1 = 0.7015 | 286
335.14 K, x1 = 0.8023 | 285.89
335.14 K, x1 = 0.9139 | 285.08
335.14 K, x1 = 0.9609 | 284.15
336.14 K, x1 = 0.0061 | 239.67
336.14 K, x1 = 0.0249 | 240.6
336.14 K, x1 = 0.0494 | 243.78

Source: the NIST ThermoML archive (doi:10.1016/j.jct.2008.10.010)
